Measured values from ChEMBL document CHEMBL1153681 (Bioorg Med Chem Lett, 1992).

Legend:
[1] = Ratio of the ability to inhibit electrically induced contractions in the mouse vas deferens (MVD) to that of the guinea pig ileum (GPI); format: functional
[2] = organism: Cavia porcellus; assay: Evaluated for its ability to inhibit electrically induced contractions in the guinea pig ileum (GPI); format: functional, organism-based
[3] = organism: Mus musculus; assay: Evaluated for its ability to inhibit electrically induced contractions in the mouse vas deferens (MVD); format: functional, organism-based
[4] = target: Delta-type opioid receptor (Rattus norvegicus, UniProt P33533); assay: Evaluated for its affinity towards Opioid receptor delta 1 in rat fore brain by displacing the radioligand [3H]DPDPE.
[5] = target: Mu-type opioid receptor (Rattus norvegicus, UniProt P33535)
Chain of Mu-type opioid receptor (P33535 whole entry): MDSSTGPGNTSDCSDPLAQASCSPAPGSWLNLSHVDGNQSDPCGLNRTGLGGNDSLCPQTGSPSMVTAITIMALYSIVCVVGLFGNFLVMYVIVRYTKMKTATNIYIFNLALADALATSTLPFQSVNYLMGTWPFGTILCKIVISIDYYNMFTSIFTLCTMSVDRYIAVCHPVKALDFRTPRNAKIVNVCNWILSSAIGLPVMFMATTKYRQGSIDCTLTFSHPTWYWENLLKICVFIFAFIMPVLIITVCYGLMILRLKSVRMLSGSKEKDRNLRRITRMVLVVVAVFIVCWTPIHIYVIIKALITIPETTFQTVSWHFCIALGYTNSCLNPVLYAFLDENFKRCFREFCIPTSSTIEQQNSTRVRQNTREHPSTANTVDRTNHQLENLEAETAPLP
Description: Evaluated for its affinity towards Opioid receptor mu 1 in rat forebrain by displacing the radioligand [3H]sufentanil.

Chain of Delta-type opioid receptor (P33533 whole entry): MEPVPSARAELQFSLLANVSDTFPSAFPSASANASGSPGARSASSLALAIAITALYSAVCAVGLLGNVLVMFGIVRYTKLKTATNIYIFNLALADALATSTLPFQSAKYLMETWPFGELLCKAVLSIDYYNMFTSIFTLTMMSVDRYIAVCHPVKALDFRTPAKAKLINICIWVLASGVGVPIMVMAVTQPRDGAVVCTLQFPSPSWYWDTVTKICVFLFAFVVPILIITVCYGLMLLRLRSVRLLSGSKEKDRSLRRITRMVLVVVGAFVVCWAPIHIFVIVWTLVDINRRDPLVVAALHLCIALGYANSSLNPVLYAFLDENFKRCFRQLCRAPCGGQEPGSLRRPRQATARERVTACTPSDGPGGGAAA

`C[C@H](NC(=O)[C@@H](N)Cc1ccc(O)cc1)C(=O)N[C@H]1Cc2ccccc2CN(CC(=O)N[C@@H](Cc2ccc(O)cc2)C(=O)N2CCC[C@H]2C(=O)N[C@@H](CO)C(N)=O)C1=O` showed a Ratio [1] of 0.06, an IC50 [2] of 10.8 nM and an IC50 [3] of 0.66 nM. For the same compound, the IC50 [4] was 17.4 nM and the IC50 [5] was 11 nM.

For `CC(C)[C@H](NC(=O)[C@H](CC(=O)O)NC(=O)[C@H](Cc1ccccc1)NC(=O)[C@@H](C)NC(=O)[C@@H](N)Cc1ccc(O)cc1)C(=O)N[C@H](C(=O)NCC(N)=O)C(C)C` [DELTORPHIN C], the Ratio [1] was “<=0.0001”, the IC50 [2] was at least 3000 nM and the IC50 [3] was 0.32 nM.

`C[C@@H](NC(=O)[C@@H](N)Cc1ccc(O)cc1)C(=O)N[C@@H](Cc1ccccc1)C(=O)NCC(=O)N[C@@H](Cc1ccc(O)cc1)C(=O)N1CCC[C@H]1C(=O)N[C@@H](CO)C(N)=O` [DERMORPHIN] showed an IC50 [2] of 1.06 nM and an IC50 [5] of 2.4 nM.
